Experimental data published in patent publication US8785457B2 (Cellzome Limited, priority 2009, dated 2014).
Where two headings read alike, the source gives them in different places.

Assays:
[1] = system: Salmonella typhimurium strain TA1535; test: Ames plate assay, TA1535
Procedure: (§1) Certain compounds of the invention were tested for their potential to induce gene mutations in bacterial strains of Salmonella typhimurium (strains TA1535, TA1537, TA98, TA100) and Escherichia coli (strain WP2uvrA(pKM101)) in a bacterial mutation assay in the absence and presence of metabolite activation (rat S9-mix). Compounds are tested at the following dose levels: 50, 150, 500, or 1500 μg/plate.
(§2) Vehicle control treatment is the vehicle used to prepare the test compound formulation diluted to the same extent as the test compound solution. Positive controls using known mutagens are included for each strain with and without rat S9 mix. Four plates are used for the vehicle control and two replicate plates per dose per strain for the treated groups and for each positive control. At the end of incubation the number of revertant colonies per plate are recorded and mean values calculated for each vehicle control, positive control and concentration of test compound used. Results are also expressed as a ratio of the mean values to the mean concurrent vehicle control value (i.e. fold increase).

[2] = system: Salmonella typhimurium strain TA1537; test: Ames plate assay, TA1537
Procedure: as §1, §2

[3] = system: Salmonella typhimurium strain TA98; test: Ames plate assay, TA98
Procedure: as §1, §2

[4] = system: Salmonella typhimurium strain TA100; test: Ames plate assay, TA100
Procedure: as §1, §2

[5] = system: Escherichia coli strain WP2uvrA(pKM101); test: Ames plate assay, WP2uvrA(pKM101)
Procedure: as §1, §2

[6] = target: T1, PI3K delta (PI3 Kd) (Homo sapiens, UniProt O00329); test: kinobeads assay, PI3K delta; format: binding; conditions: kinobeads assay, read-out: Inhibition values (IC50) PI3Kd
T1 construct: endogenous in cells; host or cells: Jurkat, clone E6-1 (ATCC TIB-152) cell lysate
Method in brief: (§3)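 Competitive binding in Jurkat cell lysate (5 mg/mL protein) against beads carrying an immobilized phenylmorpholin-chromen ligand, in DP buffer pH 7.4 with NP40, DTT and NaF. Bead-bound kinases were eluted and quantified by antibody dot blot with infrared detection, and IC50 was taken from dose-response curves of a 1:3 dilution series.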

[7] = target: T2, DNA-dependent protein kinase (DNA-PK) (Homo sapiens, UniProt P78527); test: kinobeads assay, DNA-PK; format: binding; conditions: kinobeads assay
T2 construct: endogenous in cells; host or cells: Jurkat, clone E6-1 (ATCC TIB-152) cell lysate
Method in brief: as §3

[8] = target: T3, PI3Kalpha (PI3Ka) (Homo sapiens, UniProt P42336); test: kinobeads assay, PI3Kalpha; format: binding; conditions: kinobeads assay, Table 6
T3 construct: endogenous in cells; host or cells: cell lysate
Method in brief: (§4)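 IC50s are fitted to per-kinase dose-response curves. Kinases retained on phenylmorpholin-chromen affinity beads are read by multiplexed immunodetection after elution. Compound, added at a range of concentrations straight into cell lysate, competes for this bead capture.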

[9] = target: T4, PI3 Kbeta (PI3 Kb) (Homo sapiens, UniProt P42338); test: kinobeads assay, PI3Kbeta; format: binding; conditions: kinobeads assay, Table 6; read-out: Inhibition values (IC50) PI3Kb
T4 construct: endogenous in cells; host or cells: cell lysate
Method in brief: as §4

[10] = target: T5, PI3 Kgamma (PI3 Kg) (Homo sapiens, UniProt P48736); test: kinobeads assay, PI3Kgamma; format: binding; conditions: kinobeads assay, Table 6; read-out: Inhibition values (IC50) PI3Kg
T5 construct: endogenous in cells; host or cells: cell lysate
Method in brief: as §4

[11] = system: S6RP serine-240/244 phosphorylation; test: In vitro Phospho-S6 cellular assay (pS6RP S240/244) in HEK293T/17 cells; format: cell-based; conditions: Homo sapiens, 2 hours, read-out: pS6 IC50
Source text: Activation of mTOR signaling results in phosphorylation of several downstream targets. In cells, mTOR exists in two different protein complexes. The mTOR Complex-1 (mTORC1) phosphorylates and activates S6 Kinase 1 (S6K1) and S6 Kinase 2 (S6K2) (also known as p70S6K) which then phosphorylate S6 Ribosomal Protein (S6RP) (also known as RPS6)3. S6RP is phosphorylated on serine 235, serine 236, serine 240 and serine 244 by both pS6K1 and pS6K2. The mTOR Complex-2 (mTORC2) phosphorylates AKT on serine 473 which activates the AKT signaling pathway.
The assay measures a test compound's inhibition of S6RP serine-240/244 phosphorylation and inhibition of Akt serine-473 phosphorylation in human embryonic kidney derived HEK293T/17 cells (ATCC CRL-11268).
The HEK293T/17 cell line is maintained in DMEM media (Invitrogen catalogue number 41965-039) supplemented with 10% FCS at 37° C. in a 5% CO2 humidified incubator.
Cells are seeded in 96-well plates at 40,000 cells/well (pS6RP S240/244 assay) or 80,000 cells/well (pAkt S473 assay) in 90 μl growth media (DMEM, 2% FCS). Plates are incubated for 1 hour in a humidified incubator to allow the cells to adhere. Cells are treated with 8 concentrations of test compounds or DMSO alone for controls (final DMSO concentration 0.1%) and incubated at 37° C. for 2 hours. Then 20 μl of 5× concentrated lysis buffer (750 mM NaCl, 100 mM Tris pH7.4, 5 mM ADTA, 5 mM EGTA, 5% Triton X-100) is added, plates are sealed and incubated for 15 minutes at 4° C. with gentle shaking. After cell lysis, 25 μl cell lysate is transferred to a MesoScale plate coated with an antibody to pS6RP Ser240/244 (MesoScale Discovery K150DGD-3) or an antibody to pAkt Ser 473 (MesoScale Discovery K151DGD-3). Plates have been blocked before by incubation with 150 μl MesoScale Discovery Blocking Solution-A for 1 hour at room temperature followed by washing with 150 μl 1× Tris wash buffer per well. After the transfer of the cell lysate to the MSD plate, the pS6RP (or pAkt) protein is captured on the coated antibody by incubation at room temperature for 1 hour with gentle shaking. After the capture step the plate is washed three times with 150 μl of 1× Tris wash buffer per well. Then 25 μl detection antibody conjugated with a Sulfo-Tag is added and incubated for 1 hour at room temperature with gentle shaking. Subsequently the antibody solution is removed and the plate is washed 3 times with 150 μl×Tris wash buffer per well and 150 μl Read buffer is added. The plates are analysed on a MSD 2400 Plate Reader (MesoScale Discovery). Data analysis is performed using nonlinear regression for a sigmoidal dose-response with a variable slope.

[12] = Table 6, read-out: Inhibition values (IC50) DNAPK

T1 sequence (O00329 whole entry): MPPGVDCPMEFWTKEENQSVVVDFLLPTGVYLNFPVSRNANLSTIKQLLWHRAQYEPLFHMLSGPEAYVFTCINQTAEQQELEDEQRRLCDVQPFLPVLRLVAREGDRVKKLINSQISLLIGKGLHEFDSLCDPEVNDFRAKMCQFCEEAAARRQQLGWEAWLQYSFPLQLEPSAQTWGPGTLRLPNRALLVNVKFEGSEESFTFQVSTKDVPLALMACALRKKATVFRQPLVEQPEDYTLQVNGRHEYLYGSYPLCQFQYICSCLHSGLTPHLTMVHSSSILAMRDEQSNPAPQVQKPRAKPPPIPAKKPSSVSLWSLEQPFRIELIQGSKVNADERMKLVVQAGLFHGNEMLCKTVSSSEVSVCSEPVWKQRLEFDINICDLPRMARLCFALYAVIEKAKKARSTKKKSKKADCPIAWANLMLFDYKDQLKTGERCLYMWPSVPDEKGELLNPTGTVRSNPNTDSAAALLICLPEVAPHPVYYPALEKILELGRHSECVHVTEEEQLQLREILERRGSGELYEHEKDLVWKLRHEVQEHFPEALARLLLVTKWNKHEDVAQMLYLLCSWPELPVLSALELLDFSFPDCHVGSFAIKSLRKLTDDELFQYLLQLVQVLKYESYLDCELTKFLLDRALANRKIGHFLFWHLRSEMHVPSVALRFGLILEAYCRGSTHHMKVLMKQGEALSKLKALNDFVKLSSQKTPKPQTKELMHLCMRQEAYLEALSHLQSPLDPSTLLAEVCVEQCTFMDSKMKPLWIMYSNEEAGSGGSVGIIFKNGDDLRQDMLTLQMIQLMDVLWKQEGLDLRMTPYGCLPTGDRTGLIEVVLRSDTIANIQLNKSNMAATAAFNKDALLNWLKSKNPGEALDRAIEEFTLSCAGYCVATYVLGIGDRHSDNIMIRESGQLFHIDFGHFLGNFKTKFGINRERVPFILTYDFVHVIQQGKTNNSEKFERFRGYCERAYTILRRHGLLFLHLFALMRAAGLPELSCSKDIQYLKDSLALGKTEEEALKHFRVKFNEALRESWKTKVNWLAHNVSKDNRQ
T1 sequence (P27986 whole entry partner): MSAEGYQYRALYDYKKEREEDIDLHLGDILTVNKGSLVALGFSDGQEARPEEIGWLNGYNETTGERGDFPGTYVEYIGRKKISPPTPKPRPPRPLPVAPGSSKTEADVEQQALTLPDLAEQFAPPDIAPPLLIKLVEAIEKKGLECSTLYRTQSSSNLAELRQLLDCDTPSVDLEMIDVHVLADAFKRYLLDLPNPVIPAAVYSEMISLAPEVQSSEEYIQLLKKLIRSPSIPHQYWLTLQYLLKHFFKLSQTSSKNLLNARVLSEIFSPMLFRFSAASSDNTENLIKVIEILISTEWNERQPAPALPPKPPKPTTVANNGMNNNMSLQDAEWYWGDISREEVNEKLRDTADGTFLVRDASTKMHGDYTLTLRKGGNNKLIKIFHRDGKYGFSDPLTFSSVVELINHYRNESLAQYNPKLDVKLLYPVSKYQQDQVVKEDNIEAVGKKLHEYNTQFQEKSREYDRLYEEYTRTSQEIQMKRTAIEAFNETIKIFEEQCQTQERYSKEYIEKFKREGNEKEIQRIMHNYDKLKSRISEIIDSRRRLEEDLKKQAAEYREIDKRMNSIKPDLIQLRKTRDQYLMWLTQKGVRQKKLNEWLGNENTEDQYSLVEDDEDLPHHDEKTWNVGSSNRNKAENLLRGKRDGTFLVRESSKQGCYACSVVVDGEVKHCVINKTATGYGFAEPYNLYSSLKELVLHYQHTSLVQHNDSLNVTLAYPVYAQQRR
T4 sequence (P42338 whole entry): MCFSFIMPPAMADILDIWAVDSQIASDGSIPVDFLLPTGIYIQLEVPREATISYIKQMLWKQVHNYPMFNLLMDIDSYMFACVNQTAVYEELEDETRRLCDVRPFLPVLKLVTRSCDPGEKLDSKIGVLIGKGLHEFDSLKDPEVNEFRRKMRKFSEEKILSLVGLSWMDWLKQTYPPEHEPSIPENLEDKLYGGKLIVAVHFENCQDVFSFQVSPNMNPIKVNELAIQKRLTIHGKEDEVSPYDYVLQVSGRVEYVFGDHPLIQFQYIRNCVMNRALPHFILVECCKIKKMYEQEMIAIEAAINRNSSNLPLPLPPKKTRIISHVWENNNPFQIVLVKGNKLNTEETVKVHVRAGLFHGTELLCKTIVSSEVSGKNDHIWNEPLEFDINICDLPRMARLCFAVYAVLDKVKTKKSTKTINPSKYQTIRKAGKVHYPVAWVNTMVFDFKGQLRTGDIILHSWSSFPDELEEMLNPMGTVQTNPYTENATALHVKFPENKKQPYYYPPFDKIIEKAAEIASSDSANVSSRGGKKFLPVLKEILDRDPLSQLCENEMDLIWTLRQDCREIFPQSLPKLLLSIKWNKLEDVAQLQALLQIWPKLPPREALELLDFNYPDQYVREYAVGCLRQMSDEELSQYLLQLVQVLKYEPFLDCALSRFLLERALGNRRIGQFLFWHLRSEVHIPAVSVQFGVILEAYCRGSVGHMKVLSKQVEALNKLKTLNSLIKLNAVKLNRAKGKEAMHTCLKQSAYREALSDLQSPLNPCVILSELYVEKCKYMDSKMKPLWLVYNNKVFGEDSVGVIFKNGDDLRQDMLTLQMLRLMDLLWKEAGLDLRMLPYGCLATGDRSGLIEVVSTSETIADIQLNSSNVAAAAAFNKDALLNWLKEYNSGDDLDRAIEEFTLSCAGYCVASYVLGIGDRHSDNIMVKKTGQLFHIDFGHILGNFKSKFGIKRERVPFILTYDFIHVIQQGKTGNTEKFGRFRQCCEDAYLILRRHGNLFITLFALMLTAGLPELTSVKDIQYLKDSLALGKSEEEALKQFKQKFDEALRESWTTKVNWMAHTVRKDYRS
T4 sequence (P27986 whole entry partner): as the sequence (P27986 whole entry partner) above
T3 sequence (P42336 whole entry): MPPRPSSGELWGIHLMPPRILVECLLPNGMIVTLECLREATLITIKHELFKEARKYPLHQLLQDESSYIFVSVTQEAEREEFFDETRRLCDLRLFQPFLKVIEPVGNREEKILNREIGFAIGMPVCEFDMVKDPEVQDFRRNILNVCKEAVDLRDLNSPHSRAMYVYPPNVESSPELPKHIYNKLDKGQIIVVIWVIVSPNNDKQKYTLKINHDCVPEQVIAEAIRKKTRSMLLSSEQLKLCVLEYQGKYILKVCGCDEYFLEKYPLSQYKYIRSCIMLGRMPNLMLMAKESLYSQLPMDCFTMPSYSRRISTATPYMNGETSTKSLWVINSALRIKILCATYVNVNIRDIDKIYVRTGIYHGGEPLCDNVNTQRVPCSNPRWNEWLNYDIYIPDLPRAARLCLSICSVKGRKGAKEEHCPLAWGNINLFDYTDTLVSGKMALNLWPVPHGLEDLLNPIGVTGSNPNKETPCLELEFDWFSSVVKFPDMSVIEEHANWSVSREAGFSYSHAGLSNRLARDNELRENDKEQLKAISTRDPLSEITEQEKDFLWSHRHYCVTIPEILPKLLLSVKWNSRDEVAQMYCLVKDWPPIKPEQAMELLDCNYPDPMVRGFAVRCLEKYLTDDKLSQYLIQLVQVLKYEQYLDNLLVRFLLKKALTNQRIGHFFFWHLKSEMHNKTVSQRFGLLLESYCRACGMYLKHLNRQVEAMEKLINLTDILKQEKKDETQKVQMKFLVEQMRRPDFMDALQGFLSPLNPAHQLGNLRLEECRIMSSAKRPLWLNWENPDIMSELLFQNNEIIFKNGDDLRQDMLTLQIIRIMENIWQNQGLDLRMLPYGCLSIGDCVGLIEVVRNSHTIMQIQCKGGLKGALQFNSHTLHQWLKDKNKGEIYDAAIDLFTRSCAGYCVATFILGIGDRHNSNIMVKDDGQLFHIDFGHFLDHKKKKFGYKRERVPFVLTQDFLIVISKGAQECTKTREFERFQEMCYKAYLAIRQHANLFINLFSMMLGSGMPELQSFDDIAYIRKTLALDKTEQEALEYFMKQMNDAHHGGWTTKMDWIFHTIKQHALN
T3 sequence (P27986 whole entry partner): as the sequence (P27986 whole entry partner) above
T5 sequence (P48736 whole entry): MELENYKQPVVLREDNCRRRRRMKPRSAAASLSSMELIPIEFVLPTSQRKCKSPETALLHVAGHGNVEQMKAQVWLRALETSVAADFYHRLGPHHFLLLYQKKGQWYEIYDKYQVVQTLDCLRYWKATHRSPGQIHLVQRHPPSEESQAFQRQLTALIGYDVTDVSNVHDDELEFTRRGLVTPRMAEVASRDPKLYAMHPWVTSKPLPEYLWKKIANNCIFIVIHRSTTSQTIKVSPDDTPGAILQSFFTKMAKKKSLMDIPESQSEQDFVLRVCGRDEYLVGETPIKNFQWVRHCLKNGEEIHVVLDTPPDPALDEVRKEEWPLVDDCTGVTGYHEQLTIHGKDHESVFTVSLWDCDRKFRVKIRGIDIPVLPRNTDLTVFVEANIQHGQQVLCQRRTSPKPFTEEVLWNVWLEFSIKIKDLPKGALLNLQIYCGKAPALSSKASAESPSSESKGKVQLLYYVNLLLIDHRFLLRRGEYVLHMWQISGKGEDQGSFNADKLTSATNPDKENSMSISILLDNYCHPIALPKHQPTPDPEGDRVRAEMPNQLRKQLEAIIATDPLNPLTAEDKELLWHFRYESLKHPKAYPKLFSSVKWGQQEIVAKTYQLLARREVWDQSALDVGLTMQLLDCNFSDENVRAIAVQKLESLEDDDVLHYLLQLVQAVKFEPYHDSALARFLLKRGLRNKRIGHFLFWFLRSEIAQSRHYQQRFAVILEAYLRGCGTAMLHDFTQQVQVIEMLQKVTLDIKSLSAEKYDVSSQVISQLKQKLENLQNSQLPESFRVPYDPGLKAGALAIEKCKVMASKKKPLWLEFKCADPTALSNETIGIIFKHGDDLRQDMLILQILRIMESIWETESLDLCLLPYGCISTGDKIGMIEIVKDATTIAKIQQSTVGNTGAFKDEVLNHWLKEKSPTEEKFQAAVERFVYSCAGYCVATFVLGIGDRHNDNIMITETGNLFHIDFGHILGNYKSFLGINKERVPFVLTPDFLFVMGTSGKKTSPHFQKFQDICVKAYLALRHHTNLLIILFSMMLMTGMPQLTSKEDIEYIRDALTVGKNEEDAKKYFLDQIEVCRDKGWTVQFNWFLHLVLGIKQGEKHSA

CCOC(=O)N1Cc2nc(-c3ccc(N)cc3F)nc(N3CCOC[C@@H]3C)c2C1 [Example 138]
Ames plate assay TA1535 +S9 ([1]; TA1535, +S9, 50 μg/Plate): − | Ames plate assay TA1535 +S9 ([1]; TA1535, +S9, 150 μg/Plate): − | Ames plate assay TA1535 +S9 ([1]; TA1535, +S9, 500 μg/Plate): − | Ames plate assay TA1535 +S9 ([1]; TA1535, +S9, 1500 μg/Plate): − | Ames plate assay TA1535 −S9 ([1]; TA1535, −S9, 50 μg/Plate): − | Ames plate assay TA1535 −S9 ([1]; TA1535, −S9, 150 μg/Plate): − | Ames plate assay TA1535 −S9 ([1]; TA1535, −S9, 500 μg/Plate): − | Ames plate assay TA1535 −S9 ([1]; TA1535, −S9, 1500 μg/Plate): − | Ames plate assay TA1537 +S9 ([2]; TA1537, +S9, 50 μg/Plate): − | Ames plate assay TA1537 +S9 ([2]; TA1537, +S9, 150 μg/Plate): − | Ames plate assay TA1537 +S9 ([2]; TA1537, +S9, 500 μg/Plate): − | Ames plate assay TA1537 +S9 ([2]; TA1537, +S9, 1500 μg/Plate): − | Ames plate assay TA1537 −S9 ([2]; TA1537, −S9, 50 μg/Plate): − | Ames plate assay TA1537 −S9 ([2]; TA1537, −S9, 150 μg/Plate): − | Ames plate assay TA1537 −S9 ([2]; TA1537, −S9, 500 μg/Plate): − | Ames plate assay TA1537 −S9 ([2]; TA1537, −S9, 1500 μg/Plate): − | Ames plate assay TA98 +S9 ([3]; TA98, +S9, 50 μg/Plate): − | Ames plate assay TA98 +S9 ([3]; TA98, +S9, 150 μg/Plate): − | Ames plate assay TA98 +S9 ([3]; TA98, +S9, 500 μg/Plate): − | Ames plate assay TA98 +S9 ([3]; TA98, +S9, 1500 μg/Plate): − | Ames plate assay TA98 −S9 ([3]; TA98, −S9, 50 μg/Plate): − | Ames plate assay TA98 −S9 ([3]; TA98, −S9, 150 μg/Plate): − | Ames plate assay TA98 −S9 ([3]; TA98, −S9, 500 μg/Plate): − | Ames plate assay TA98 −S9 ([3]; TA98, −S9, 1500 μg/Plate): − | Ames plate assay TA100 +S9 ([4]; TA100, +S9, 50 μg/Plate): − | Ames plate assay TA100 +S9 ([4]; TA100, +S9, 150 μg/Plate): − | Ames plate assay TA100 +S9 ([4]; TA100, +S9, 500 μg/Plate): − | Ames plate assay TA100 +S9 ([4]; TA100, +S9, 1500 μg/Plate): − | Ames plate assay TA100 −S9 ([4]; TA100, −S9, 50 μg/Plate): − | Ames plate assay TA100 −S9 ([4]; TA100, −S9, 150 μg/Plate): − | Ames plate assay TA100 −S9 ([4]; TA100, −S9, 500 μg/Plate): − | Ames plate assay TA100 −S9 ([4]; TA100, −S9, 1500 μg/Plate): − | Ames plate assay WP2uvrA (pKM101) +S9 ([5]; +S9, 50 μg/Plate): − | Ames plate assay WP2uvrA (pKM101) +S9 ([5]; +S9, 150 μg/Plate): − | Ames plate assay WP2uvrA (pKM101) +S9 ([5]; +S9, 500 μg/Plate): − | Ames plate assay WP2uvrA (pKM101) +S9 ([5]; +S9, 1500 μg/Plate): − | Ames plate assay WP2uvrA (pKM101) −S9 ([5]; −S9, 50 μg/Plate): − | Ames plate assay WP2uvrA (pKM101) −S9 ([5]; −S9, 150 μg/Plate): − | Ames plate assay WP2uvrA (pKM101) −S9 ([5]; −S9, 500 μg/Plate): − | Ames plate assay WP2uvrA (pKM101) −S9 ([5]; −S9, 1500 μg/Plate): −

CCNC(=O)Nc1ccc(-c2nc3c(c(N4CCOCC4)n2)CCN(C(=O)OC)C3)cc1 [Example 95, methyl 2-(4-(3-ethylureido)phenyl)-4-morpholino-5,6-dihydropyrido[3,4-d]pyrimidine-7(8H)-carboxylate]
IC50 ([6]; Table 6): > 10 µM | IC50 [7, 12]: > 10 µM | Inhibition values (IC50) PI3Ka [8]: D (D >10 μM) | IC50 [9]: > 10 µM | IC50 [10]: > 10 µM | IC50 [11]: 218 nM

CCNC(=O)Nc1ccc(-c2nc3c(c(N4CCOCC4)n2)CN(C(=O)NCC)C3)cc1 [Example 79, N-ethyl-2-(4-(3-ethylureido)phenyl)-4-morpholino-5H-pyrrolo[3,4-d]pyrimidine-6(7H)-carboxamide]
IC50 ([6]; Table 6): 1 to 10 µM | IC50 [7, 12]: 1 to 10 µM | IC50 ([8]; read-out: Inhibition values (IC50) PI3Ka): 1 to 10 µM | IC50 [9]: > 10 µM | IC50 [10]: > 10 µM | IC50 [11]: 589 nM

CCNC(=O)Nc1ccc(-c2nc3c(c(N4CCOCC4)n2)CN(C(=O)OC(C)(C)C)C3)cc1 [Example 63, tert-butyl 2-(4-(3-ethylureido)phenyl)-4-morpholino-5H-pyrrolo[3,4-d]pyrimidine-6(7H)-carboxylate]
IC50 ([6]; Table 4): 1 to 10 µM | IC50 ([6]; Table 6): 1 to 10 µM | IC50 ([7]; Table 4, read-out: Inhibition values (IC50) DNA-PK): > 10 µM | IC50 [7, 12]: > 10 µM | IC50 [11]: 46 nM
